{"source": "patent US20100286098A1", "about": "“USE OF TETRAHYDROCANNABINOL AND/OR CANNABIDIOL FOR THE TREATMENT OF INFLAMMATORY BOWEL DISEASE” (GW Pharma Limited, priority 2007, published 2010)", "format_in_all_cases": "in vivo, rat", "key": {"[1]": {"tested_on": "myeloperoxidase (MPO) activity", "experiment": "TNBS model of colitis, myeloperoxidase (MPO) activity", "settings": "for MPO, mean: 72 h after TNBS", "method": "(§1) In this example, the TNBS (trinitrobenzenesulfonic acid) model of colitis was used to characterize the effects of CBD alone, THC alone and a combination of CBD and THC (in two different ratios) on inflammation and in vitro motility and secretory parameters.\n(§2) Colitis was evoked in male Wistar rats by intra-colonic administration of 6.7 mg TNBS in 0.25 ml 25% ethanol. The degree of inflammation was quantified using a macroscopic damage score (MDS, 0-13 scale) and myeloperoxidase (MPO) activity.\n(§3) CBD was used at doses of 5, 10, 15 and 20 mg/kg. THC was used at doses of 5, 10 and 20 mg/kg. In addition THC at doses of 5 and 10 mg/kg was administered in combination with CBD at a dose of 10 mg/kg.\n(§4) Doses were administered i.p., once daily starting 0.5 hour before TNBS administration and animals (n=6-11 per group) were sacrificed 72 hours after colitis induction."}, "[2]": {"tested_on": "TNBS (trinitrobenzenesulfonic acid) model of colitis", "experiment": "TNBS model of colitis, macroscopic damage score (MDS)", "settings": "for MDS, mean: 72 h after TNBS, 0-13 scale", "method": "as §1, §2, §3, §4"}, "[3]": {"tested_on": "mucosa-submucosa preparations", "experiment": "Ussing chamber, secretory response evoked by veratridine (nerve stimulation), TNBS colitis rats", "method": "(§5) Using the Ussing chamber technique, secretory responses evoked by veratridine (a nerve stimulant, 1×10^−5M) were assessed and expressed as % response to carbachol (1×10−5M).\nas §3, §4"}, "[4]": {"tested_on": "mucosa-submucosa preparations", "experiment": "Ussing chamber, secretory response to carbachol (ΔIsc), TNBS colitis rats", "settings": "THC alone, data not shown", "method": "as §5, §3, §4"}}, "data": [{"smiles": "C=C(C)[C@@H]1CCC(C)=C[C@H]1c1c(O)cc(CCCCC)cc1O", "note": "[CBD, cannabidiol]", "values": [{"measurement": "MPO, mean", "setting": "[1]; CBD 5 mg/kg i.p. once daily, vehicle 6.03", "value": 5.38, "unit": "ngHRP/mg protein"}, {"measurement": "MPO, mean", "setting": "[1]; CBD 10 mg/kg i.p. once daily, vehicle 6.03", "value": 4.65, "unit": "ngHRP/mg protein"}, {"measurement": "MPO, mean", "setting": "[1]; CBD 15 mg/kg i.p. once daily, vehicle 6.03", "value": 4.00, "unit": "ngHRP/mg protein"}, {"measurement": "MPO, mean", "setting": "[1]; CBD 20 mg/kg i.p. once daily, vehicle 6.03", "value": 2.68, "unit": "ngHRP/mg protein"}, {"measurement": "effect on MPO across doses", "setting": "[1]; CBD 5, 10, 15 and 20 mg/kg i.p.", "value": "reduced MPO in a dose dependent manner, but the effect was not significant"}, {"measurement": "MDS, mean", "setting": "[2]; CBD 5 mg/kg i.p. once daily, vehicle 5.46", "value": 6.75}, {"measurement": "MDS, mean", "setting": "[2]; CBD 15 mg/kg i.p. once daily, vehicle 5.46", "value": 5.60}, {"measurement": "MDS, mean", "setting": "[2]; CBD 20 mg/kg i.p. once daily, vehicle 5.46", "value": 4.60}]}, {"smiles": "CCCCCc1cc(O)c2c(c1)OC(C)(C)[C@@H]1CCC(C)=C[C@@H]21", "note": "[THC, tetrahydrocannabinol]", "values": [{"measurement": "secretory response to nerve stimulation", "setting": "[3]; THC 10 mg/kg i.p. alone, expressed as % response to carbachol, vehicle 24.4±8.2", "value": "30.3±7.5"}, {"measurement": "secretory responses to nerve stimulation", "setting": "[3]; THC alone, data not shown", "value": "did not affect"}, {"measurement": "responses to carbachol", "setting": "[4]", "value": "not significantly increased"}, {"measurement": "MPO, mean", "setting": "[1]; THC 5 mg/kg i.p. once daily, vehicle 3.35", "value": 4.29, "unit": "ngHRP/mg protein"}, {"measurement": "MDS, mean", "setting": "[2]; THC 5 mg/kg i.p. once daily, vehicle 6.00", "value": 6.5}, {"measurement": "MDS, mean", "setting": "[2]; THC 20 mg/kg i.p. once daily, vehicle 6.00", "value": 4.67}, {"measurement": "dose-response relationship on MDS", "setting": "[2]; THC 5, 10 and 20 mg/kg i.p.", "value": "bell-shaped pattern"}]}]}
